In patent US8637679B2, “Process for the isolation of organic compounds useful for the treatment of cancer” (Council of Scientific and Industrial Research, priority 2011, dated 2014):
Several values for one entry are separate records, joined by “and”; a condition that tells them apart may be missing. Identical values can stand only once. Entries after “also recorded” stand apart in the source; their conditions may differ. Like-named read-outs stand apart in the source and are kept apart here.

How the values were obtained:
Hsp90β = Hsp90β (Homo sapiens, UniProt P08238); assay: γ-ATP sepharose binding assay, Hsp90β; details: mahanine at 50 and 100 μM
Chain of Hsp90β (P08238 whole entry): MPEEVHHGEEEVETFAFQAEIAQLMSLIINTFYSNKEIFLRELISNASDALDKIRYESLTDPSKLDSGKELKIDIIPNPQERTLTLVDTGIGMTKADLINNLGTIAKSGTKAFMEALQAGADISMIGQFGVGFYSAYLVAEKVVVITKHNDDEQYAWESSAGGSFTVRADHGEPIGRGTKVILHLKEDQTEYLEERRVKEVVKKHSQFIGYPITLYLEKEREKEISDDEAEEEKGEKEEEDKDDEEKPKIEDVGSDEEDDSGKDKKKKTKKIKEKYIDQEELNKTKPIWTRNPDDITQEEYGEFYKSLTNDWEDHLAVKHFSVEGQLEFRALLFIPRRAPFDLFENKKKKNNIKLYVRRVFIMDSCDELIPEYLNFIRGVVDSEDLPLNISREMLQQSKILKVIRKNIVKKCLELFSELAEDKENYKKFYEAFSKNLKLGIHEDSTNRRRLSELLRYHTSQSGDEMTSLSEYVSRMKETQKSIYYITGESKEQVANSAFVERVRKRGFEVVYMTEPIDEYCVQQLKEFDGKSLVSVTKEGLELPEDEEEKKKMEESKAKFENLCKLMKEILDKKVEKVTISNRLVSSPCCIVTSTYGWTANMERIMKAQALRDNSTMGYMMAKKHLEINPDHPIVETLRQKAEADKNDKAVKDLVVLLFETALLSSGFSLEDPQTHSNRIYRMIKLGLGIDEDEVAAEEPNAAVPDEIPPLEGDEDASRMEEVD
Protocol: (§1) 5 μg of purified Hsp90α and Hsp90β were pre-incubated separately on ice with 200 μL incubation buffer (10 mM Tris-Hcl, 50 mM KCl, 5 mM MgCl2, 2 mM DTT, 20 mM Na2MoO4, 0.01% NP40, pH 7.5) containing mahanine or 17-AAG and incubated for 30 mins on ice. After the incubation, 25 μL pre-equilibrated γ-phosphate ATP sepharose added and again incubated at 37° C. with frequent agitation.
(§2) Sepharose subsequently washed and analyzed by SDS-PAGE. Then the blot was probed with anti Hsp90 antibody and developed by ECL.

Hsp90α = Hsp90α (Homo sapiens, UniProt P07900); assay: γ-ATP sepharose binding assay, Hsp90α; details: mahanine at 50 and 100 μM
Protocol: as §1, §2

HeLa [1] = assay: 7-AAD flow cytometric apoptosis, HeLa; assay type: cell-based, human
Protocol: (§5) U87MG, LN229, HeLa, SiHa and ME180 (1×10^6 cells) cells were cultured in 6-well plates in presence or absence of Mahanine (25 μM) for 24 hrs. Cells were washed in PBS, incubated with 7-Aminoactinomycin D (7-AAD) at 4° C. for 20 min and processed. Data acquisition was done on a FACSCalibur flow cytometer (BD) at excitation wavelength at 488 nm and emission wavelength at 647 nm and analyzed with CellQuestPro software.

REH = assay: MTT cell viability assay, REH; assay type: cell-based, human; details: 48 hrs
Protocol: (§3) Human cervical cancer cell lines (HeLa, ME-180 and SiHa), brain tumor cell lines (U87MG, U373MG, U87MG EGFRvIII, T98G, A172 and LN229), lymphoid leukemia (MOLT-3, MOLT-4, REH and CEMC-7), myloid leukemia (K562), pancreatic cancer (MIAPaCa-2, AsPC-1, Panc-1 and Panc 10.05), lung cancer (A549) and colon cancer (HCT116 and SW480) cell lines from American Type Culture Collection, Manassas, Va., USA were grown in IMDM or RPMI (cell specific) Medium supplemented with 10% fetal bovine serum and 1% antibiotic-antimycotic. Cells were cultured in 37° C. in an atmosphere of 5% CO2.
(§4) Viability of cancer cell lines after treatment as at the indicated times was determined by MTT assay. Briefly, 10,000 cells were plated in triplicate in 96 well plates and incubated for 24 and 48 hours in complete media in presence of varying dose of mahanine (0-50 μM). 100 ug MTT was added in each well. Incubate the plate for 1-4 hours at 37° C. and humidified 5% CO2 atmosphere. Absorbance was recorded at 550 nm with 96 well plate readers.

HeLa [2] = assay: MTT cell viability assay, HeLa; assay type: cell-based, human; details: 48 hrs
Protocol: as §3, §4

A549 = assay: MTT cell viability assay, A549; assay type: cell-based, human; details: A549, 48 hrs
Protocol: as §3, §4

Panc10.05 = assay: MTT cell viability assay, Panc10.05; assay type: cell-based, human; details: Panc10.05, 48 hrs
Protocol: as §3, §4

Molt-4 = assay: MTT cell viability assay, Molt-4; assay type: cell-based, human; details: Molt-4, 48 hrs
Protocol: as §3, §4

[3] = In vivo bioavailability after oral feeding; parameters: species or system Balb/c mice; details: mouse, in vivo, po
Protocol: EtOAc extract of Murraya koenigii was orally feeded to normal healthy Balb/c (100 mg/kg body weight) and blood was collected from retro orbital plexus after 30 min interval by glass capillary. Control blood was collected from the mice before the […] of extract. The Institutional Animal Ethical Committee had approved the study. Blood serum was isolated and the serum protein was separated by centrifugation in ice-cold acetone. Supernatant was evaporated to dryness and residual part was dissolved in minimum volume of MeOH and injected into the HPLC column.

U87MG = assay: MTT cell viability assay, U87MG; assay type: cell-based, human; details: 48 hrs
Protocol: as §3, §4

Panc1 = assay: MTT cell viability assay, Panc1; assay type: cell-based, human; details: Panc1, 48 hrs
Protocol: as §3, §4

MIAPaCa-2 = assay: MTT cell viability assay, MIAPaCa-2; assay type: cell-based, human; details: MIAPaCa-2, 48 hrs
Protocol: as §3, §4

U373MG = assay: MTT cell viability assay, U373MG; assay type: cell-based, human; details: 48 hrs
Protocol: as §3, §4

LN229 = assay: MTT cell viability assay, LN229; assay type: cell-based, human; details: LN229, 48 hrs
Protocol: as §3, §4

Molt-3 = assay: MTT cell viability assay, Molt-3; assay type: cell-based, human; details: Molt-3, 48 hrs
Protocol: as §3, §4

K562 = assay: MTT cell viability assay, K562; assay type: cell-based, human; details: K562, 48 hrs
Protocol: as §3, §4

SW480 = assay: MTT cell viability assay, SW480; assay type: cell-based, human; details: SW480, 48 hrs
Protocol: as §3, §4

cancer cell lines = assay: MTT assay, pooled cancer cell lines of several cancer types; assay type: cell-based, human; details: 48 hr
Protocol: as §3, §4

AsPC1 = assay: MTT cell viability assay, AsPC1; assay type: cell-based, human; details: AsPC1, 48 hrs
Protocol: as §3, §4

A172 = assay: MTT cell viability assay, A172; assay type: cell-based, human; details: A172, 48 hrs
Protocol: as §3, §4

[4] = tested on: glioma cells (U87MG, U373MG, LN229, A172 and T98G); assay: MTT assay, panel of glioma cell lines; assay type: cell-based, human; details: range over U87MG, 48 hr, read-out: IC50 values against different glioma cell lines
Protocol: as §3, §4

T98G = assay: MTT cell viability assay, T98G; assay type: cell-based, human; details: 48 hrs
Protocol: as §3, §4

Vero = assay: MTT cell viability assay, Vero normal cells; assay type: cell-based, African monkey; details: Vero normal cell line, 48 hrs
NCIH23 = assay: MTT cell viability assay, NCIH23; assay type: cell-based, human; details: NCIH23, 48 hrs
Protocol: as §4

CEM C7 = assay: MTT cell viability assay, CEM C7; assay type: cell-based, human; details: CEM C7, 48 hrs
Protocol: as §3, §4

HCT116 = assay: MTT cell viability assay, HCT116; assay type: cell-based, human; details: HCT116, 48 hrs
Protocol: as §3, §4

[5] = tested on: glioma (T98G) and cervical (HeLa) cancer cells; assay: Comparative cytotoxicity of mahanine and analogs by MTT; assay type: cell-based, human; details: MTT
Protocol: as §3, §4

ME180 = assay: 7-AAD flow cytometric apoptosis, ME180; assay type: cell-based, human; details: ME180, paclitaxel 10 μM alone
Protocol: as §5

Compound: 17-allylamino, 17-demethoxygeldanamycin [17AAG, reference compound]
- effect on ATP binding to purified Hsp90 (Hsp90β): easily hindered the ATP binding
- effect on ATP binding to purified Hsp90 (Hsp90α): easily hindered the ATP binding

Compound: N.N.[Cl][Pt][Cl] [Cisplatin, cisplatin]
- apoptosis (7-AAD) (HeLa [1]; cisplatin 40 μM alone): ~7%

Compound: CC(C)=CCCC1(C)C=Cc2c(c(C)cc3c2[nH]c2ccccc23)O1 (stereo not shown) [Mahanimbine, mahanimbine]
- IC50 (REH): 24.3 ± 0.7 µM
- IC50 (HeLa [2]): 34.8 ± 0.1 µM
- IC50 (HeLa [2]; listed as Mahanimbin): 36 µM
- IC50 (A549): 37 ± 0.1 µM
- IC50 (Panc10.05): 38.2 ± 0.1 µM
- IC50 (Molt-4): 28 ± 0.2 µM
- secondary metabolites in blood (mass spectroscopy) [3]: no production of secondary metabolites
- time to appearance in blood circulation after oral administration [3]: ≤ 30 min
- IC50 (U87MG): 42.6 ± 0.4 µM
- IC50 (Panc1): 32.8 ± 0.1 µM
- IC50 (MIAPaCa-2): 35.2 ± 0.1 µM
- IC50 (U373MG): 41.2 ± 0.25 µM
- IC50 (LN229): 46.3 ± 0.1 µM
- IC50 (Molt-3): 22.6 ± 0.6 µM
- IC50 (K562): 25.1 ± 0.1 µM
- IC50 (SW480): 36.4 ± 0.5 µM
- IC50 (cancer cell lines; range over glioma and cervical cancer cell lines, read-out: IC50, glioma and cervical cancer cells): 10 to 20 µM
- IC50 (cancer cell lines; range over leukemia, glioma, cervical, pancreatic, colon and lung cancer lines, MTT, read-out: IC50, cell lines of different cancer types): 20 to 45 µM and 30 to 50 µM
- IC50 (AsPC1): 31.75 ± 0.2 µM
- IC50 (A172): 38.4 ± 0.8 µM
- IC50 [4]: 38 to 47 µM
- IC50 (T98G): 43.6 ± 0.2 µM
- IC50 (Vero): > 100 µM
- IC50 (NCIH23): 31.8 ± 0.2 µM
- IC50 (CEM C7): 27.4 ± 0.3 µM
- IC50 (HCT116): 33.5 ± 0.3 µM

Compound: CC(C)=CCCC1(C)C=Cc2c(c(C)cc3c4ccccc4n(C)c23)O1 (stereo not shown) [N-methylated mahanimbine]
- cytotoxicity (activity in words) [5]: inactive; also recorded: more or less inactive

Compound: COc1ccc2c(c1)[nH]c1c3c(c(C)cc12)OC(C)(CCC=C(C)C)C=C3 (stereo not shown) [O-methylated mahanine]
- cytotoxicity (activity in words) [5]: inactive; also recorded: more or less inactive

Compound: CC(=O)O[C@H]1C(=O)[C@@]2(C)[C@H]([C@H](OC(=O)c3ccccc3)[C@]3(O)C[C@H](OC(=O)[C@H](O)[C@@H](NC(=O)c4ccccc4)c4ccccc4)C(C)=C1C3(C)C)[C@]1(OC(C)=O)CO[C@@H]1C[C@@H]2O [Paclitaxel, paclitaxel, reference compound]
- apoptosis (7-AAD) (HeLa [1]; paclitaxel 10 μM alone): 16.19%
- apoptosis (7-AAD) (ME180): 18.21%

Compound: C20-C21 epoxy mahanine
- IC50 (REH): 18.4 ± 1.1 µM
